From ChEMBL document CHEMBL1201862, “PubChem BioAssay data set” (2004)
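Where inhibition never reached the appropriate level, the endpoint shown equals the highest concentration tested. Otherwise, values were interpolated linearly from a five-concentration, 48-hour dose response in 96-well plates. GI50: concentration for 50% inhibition of growth.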 Activity calls are given as the source filed them. Rule as the data show it: active = GI50 up to about 1.1 µM and inactive = higher.

Assays:
Test in all cases: NCI anticancer screen, dose series, 48 h
HL-60 = system: HL-60
SF-268 = system: SF-268
SNB-75 = system: SNB-75
SW-620 = system: SW-620
OVCAR-3 = system: OVCAR-3
NCI-H522 = system: NCI-H522
MDA-MB-231 = system: MDA-MB-231
Hs-578T = system: Hs-578T
NCI-H460 = system: NCI-H460
U-251 = system: U-251
ACHN = system: ACHN
SNB-19 = system: SNB-19
CCRF-CEM = system: CCRF-CEM
EKVX = system: EKVX
PC-3 = system: PC-3
UACC-62 = system: UACC-62
K562 = system: K562
TK-10 = system: TK-10
SF-295 = system: SF-295
MDA-MB-435 = system: MDA-MB-435

Row | SMILES | GI50 (HL-60) | GI50 (SF-268) | GI50 (SNB-75) | GI50 (SW-620) | GI50 (OVCAR-3) | GI50 (NCI-H522) | GI50 (MDA-MB-231) | GI50 (Hs-578T) | GI50 (NCI-H460) | GI50 (U-251) | GI50 (ACHN) | GI50 (SNB-19) | GI50 (CCRF-CEM) | GI50 (EKVX) | GI50 (PC-3) | GI50 (UACC-62) | GI50 (K562) | GI50 (TK-10) | GI50 (SF-295) | GI50 (MDA-MB-435)
1 | Cc1cc(N(CCC#N)CCC#N)ccc1/C=C1N=C(/C=C\c2ccccc2)N(c2ccc(Cl)cc2)C\1=O | 6.05 µM (inactive) | > 22 µM (inactive) | > 100 µM (inactive) | 11.6 µM (inactive) | 40.5 µM (inactive) | 24.7 µM (inactive) | > 100 µM (inactive) | > 100 µM (inactive) | 10.8 µM (inactive) | > 28.6 µM (inactive) | 8.32 µM (inactive) | > 100 µM (inactive) | 3.4 µM (inactive) | > 100 µM (inactive) | 0.536 µM (active) | 0.746 µM (active) | 0.607 µM (active) | > 53.3 µM (inactive) | 4.57 µM (inactive) | 
2 | C[C@@H]1C(=O)O[C@@H]2C[C@@]1(C)[C@@H]1C(=O)C3(O)OC14C2(C)OC(=O)[C@@]4(O)CCC1C3C(O)C=C2CC=CC(=O)[C@@]21C (stereo partly drawn) | 13.4 µM (inactive) | 26.7 µM (inactive) | 15.7 µM (inactive) | 40.2 µM (inactive) |  |  | 28.8 µM (inactive) | 20.9 µM (inactive) | 29.9 µM (inactive) | 30.8 µM (inactive) | 53.6 µM (inactive) | 3.24 µM (inactive) | 13.6 µM (inactive) | 40.6 µM (inactive) | 36 µM (inactive) | 22 µM (inactive) | 23.9 µM (inactive) | 36.9 µM (inactive) | 33.3 µM (inactive) | 20.4 µM (inactive)
3 | CNC(=O)OCC1=C(COC(=O)NC)C(C)N(c2ccc(OC)cc2)C1 (stereo not drawn) | 23.8 µM (inactive) | > 100 µM (inactive) | 29.4 µM (inactive) | > 100 µM (inactive) | 43 µM (inactive) |  | > 100 µM (inactive) | > 100 µM (inactive) | 23 µM (inactive) | 22.4 µM (inactive) | 62.2 µM (inactive) | > 100 µM (inactive) | 47.2 µM (inactive) | > 100 µM (inactive) | 71.6 µM (inactive) | 15.3 µM (inactive) | 69.2 µM (inactive) | 11.5 µM (inactive) | 88.9 µM (inactive) | > 100 µM (inactive)
4 | c1ccc2c(c1)nc1n2CCSC1 | > 100 µM (inactive) | > 100 µM (inactive) | > 100 µM (inactive) | > 100 µM (inactive) | > 100 µM (inactive) |  | > 100 µM (inactive) | > 100 µM (inactive) | > 100 µM (inactive) | > 100 µM (inactive) | > 100 µM (inactive) | > 100 µM (inactive) | > 100 µM (inactive) | > 100 µM (inactive) | > 100 µM (inactive) | > 100 µM (inactive) | > 100 µM (inactive) | > 100 µM (inactive) | > 100 µM (inactive) | > 100 µM (inactive)
5 | CCOC(=O)N(NC(=O)NC(C)C)c1ccccc1 | 60.1 µM (inactive) |  | > 100 µM (inactive) | > 100 µM (inactive) | > 100 µM (inactive) |  | > 100 µM (inactive) | > 100 µM (inactive) | > 100 µM (inactive) | > 100 µM (inactive) | > 100 µM (inactive) | > 100 µM (inactive) | > 100 µM (inactive) | > 100 µM (inactive) | > 100 µM (inactive) | > 100 µM (inactive) | > 100 µM (inactive) | > 100 µM (inactive) | > 100 µM (inactive) | 
6 | CCOP(=O)(OCC)C(c1ccc(F)cc1)N(C(=O)NC(F)(F)F)c1ccc(OC)cc1 (stereo not drawn) | > 100 µM (inactive) | > 100 µM (inactive) | > 100 µM (inactive) | > 100 µM (inactive) | > 100 µM (inactive) | > 100 µM (inactive) | > 100 µM (inactive) | > 100 µM (inactive) | > 100 µM (inactive) | > 100 µM (inactive) | > 100 µM (inactive) | > 100 µM (inactive) | > 100 µM (inactive) | > 100 µM (inactive) |  |  | > 100 µM (inactive) | > 100 µM (inactive) | > 100 µM (inactive) | > 100 µM (inactive)
7 | N#CCN1CCCCCc2ccccc21 | > 100 µM (inactive) | > 100 µM (inactive) | > 100 µM (inactive) | > 100 µM (inactive) |  |  | > 100 µM (inactive) | > 100 µM (inactive) | > 100 µM (inactive) | > 100 µM (inactive) | > 100 µM (inactive) | > 100 µM (inactive) | > 100 µM (inactive) | > 100 µM (inactive) |  | > 100 µM (inactive) | > 100 µM (inactive) | > 100 µM (inactive) | 53.5 µM (inactive) | > 100 µM (inactive)
8 | COC(=O)[C@@H]1CN(C(=O)c2ccccc2)C(=O)N1C(=O)OCc1ccccc1 | > 100 µM (inactive) | > 100 µM (inactive) | > 100 µM (inactive) | > 100 µM (inactive) | > 100 µM (inactive) | > 100 µM (inactive) | > 100 µM (inactive) | > 100 µM (inactive) | > 100 µM (inactive) | > 100 µM (inactive) | > 100 µM (inactive) | > 100 µM (inactive) | > 100 µM (inactive) | > 100 µM (inactive) |  | > 100 µM (inactive) | > 100 µM (inactive) | > 100 µM (inactive) | > 100 µM (inactive) | > 100 µM (inactive)
9 | N#CCCN(CCC#N)c1ccc(/C=C2\N=C(c3ccccc3)N(c3ccc(C(=O)O)cc3)C2=O)cc1 | > 10 µM (inactive) | 21.1 µM (inactive) |  | 21 µM (inactive) | 40.1 µM (inactive) |  | 52 µM (inactive) | 22.3 µM (inactive) | 27.6 µM (inactive) | 30.2 µM (inactive) | 42.5 µM (inactive) | 32.2 µM (inactive) |  | 26.2 µM (inactive) | 37.5 µM (inactive) | 23.8 µM (inactive) | 38.2 µM (inactive) | > 100 µM (inactive) | 48.8 µM (inactive) | 31.8 µM (inactive)
10 | CCCCNC(=S)c1ccc(OC(=O)Nc2ccc(Cl)cc2)cc1 | 8.57 µM (inactive) | 49.1 µM (inactive) |  | > 100 µM (inactive) | 66.5 µM (inactive) | 24.5 µM (inactive) |  | 57.7 µM (inactive) | 10.4 µM (inactive) | > 100 µM (inactive) | 70.6 µM (inactive) | > 100 µM (inactive) | 26.3 µM (inactive) | 42.2 µM (inactive) | > 100 µM (inactive) | 0.914 µM (active) | 1.83 µM (inactive) |  | > 100 µM (inactive) | 70.1 µM (inactive)
11 | CN(C)c1ccc(/C=C2\C[C@H]3[C@@H]4CCC5=CC(=O)CC[C@]5(C)[C@H]4CC[C@]3(C)C2=O)cc1 | 17.2 µM (inactive) | 46.3 µM (inactive) | > 100 µM (inactive) | 48.9 µM (inactive) | 88.1 µM (inactive) |  | 38.9 µM (inactive) | 38.4 µM (inactive) | 17.4 µM (inactive) | 20.2 µM (inactive) | 29.4 µM (inactive) | > 100 µM (inactive) |  | 19.2 µM (inactive) | 12.6 µM (inactive) | 20 µM (inactive) | 19 µM (inactive) | 32.5 µM (inactive) | > 100 µM (inactive) | 
12 | O=S(=O)(c1ccc(Cl)cc1)c1ccccc1C1=NCCN1 | > 100 µM (inactive) | > 100 µM (inactive) | > 100 µM (inactive) | > 100 µM (inactive) | > 100 µM (inactive) |  | > 100 µM (inactive) | > 100 µM (inactive) | > 100 µM (inactive) | > 100 µM (inactive) | > 100 µM (inactive) | > 100 µM (inactive) | > 100 µM (inactive) | > 100 µM (inactive) | > 100 µM (inactive) | > 100 µM (inactive) | > 100 µM (inactive) | > 100 µM (inactive) | > 100 µM (inactive) | > 100 µM (inactive)
13 | O=[N+]([O-])c1ccc(-c2nc3ccccc3o2)cc1 |  | > 100 µM (inactive) | > 100 µM (inactive) | > 100 µM (inactive) | > 100 µM (inactive) | > 100 µM (inactive) |  | > 100 µM (inactive) | > 100 µM (inactive) | > 100 µM (inactive) | > 100 µM (inactive) | > 100 µM (inactive) | 40.4 µM (inactive) | > 100 µM (inactive) | > 100 µM (inactive) | > 100 µM (inactive) | > 100 µM (inactive) | > 100 µM (inactive) | > 100 µM (inactive) | > 100 µM (inactive)
14 | O=C(Nc1ccc(Cl)cc1C(F)(F)F)C(=O)Nn1c(S)nc2ccccc2c1=O | 60.5 µM (inactive) | > 100 µM (inactive) | 27.8 µM (inactive) | > 100 µM (inactive) | > 100 µM (inactive) |  | > 100 µM (inactive) | > 100 µM (inactive) | > 100 µM (inactive) | > 100 µM (inactive) | > 100 µM (inactive) |  | 59.8 µM (inactive) |  | > 100 µM (inactive) | > 100 µM (inactive) | > 100 µM (inactive) | > 100 µM (inactive) | > 100 µM (inactive) | > 100 µM (inactive)
15 | c1ccc2sc(C3(N4CCC5(CC4)OCCO5)CCCCC3)cc2c1 | 12.2 µM (inactive) | > 100 µM (inactive) | 56.4 µM (inactive) | > 100 µM (inactive) | > 100 µM (inactive) | 78 µM (inactive) |  | > 100 µM (inactive) | 48.5 µM (inactive) |  | > 100 µM (inactive) | > 100 µM (inactive) | 29 µM (inactive) | > 100 µM (inactive) |  | > 100 µM (inactive) | > 100 µM (inactive) | 90.6 µM (inactive) | > 100 µM (inactive) | 58.6 µM (inactive)
